Data from patent US20190300892A1, “CONSTRUCTS AND METHODS FOR BIOSYNTHESIS OF GALANTHAMINE” (priority 2014, published 2019).
Entries after “also recorded” stand apart in the source; their conditions may differ. Read-outs that look alike come from different tables or passages of the source.

Experiments:
[1] = molecular target: T1, CYP96T1 (Narcissus aff. pseudonarcissus MK-2014, UniProt A0A140IL90); assay type: biochemical; details: for product formation as CYP96T1 substrate: LC-MS/MS
T1 construct: made in house; host or cells: Spodoptera frugiperda Sf9 cells (Baculogold baculovirus, pVL1392)
T1 sequence (A0A140IL90 1-513): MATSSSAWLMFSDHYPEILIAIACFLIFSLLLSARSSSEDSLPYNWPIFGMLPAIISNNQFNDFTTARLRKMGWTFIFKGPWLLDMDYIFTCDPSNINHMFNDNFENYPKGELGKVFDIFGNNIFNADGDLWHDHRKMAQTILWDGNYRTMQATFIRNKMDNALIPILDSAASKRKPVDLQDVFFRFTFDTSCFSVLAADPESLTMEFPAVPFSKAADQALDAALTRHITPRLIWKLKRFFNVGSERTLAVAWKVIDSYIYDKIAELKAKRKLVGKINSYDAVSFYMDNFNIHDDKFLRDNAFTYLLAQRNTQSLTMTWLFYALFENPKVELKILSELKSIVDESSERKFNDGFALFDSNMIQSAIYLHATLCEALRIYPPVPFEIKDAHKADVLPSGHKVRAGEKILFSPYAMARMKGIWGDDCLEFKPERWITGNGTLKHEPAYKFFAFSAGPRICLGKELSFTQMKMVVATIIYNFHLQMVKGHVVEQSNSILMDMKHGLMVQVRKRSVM
Description: Recombinant protein production of NpN4OMT and norbelladine synthase/reductase in 1 L of E. coli and purification with TALON resin followed standard methods. No proteases were added to the protein extract, and desalting was performed with PD-10 columns from GE Healthcare. Protein quantity was determined according to Bradford; purity was monitored by SDS-PAGE. The E. coli cell line containing the hexahistidine-tagged methylthioadenosine/S-adenosylhomocysteine nucleosidase (Pfs) construct from Choi-Rhee and Cronan's work was used to purify Pfs protein. CYP96T1 was co-expressed with cytochrome P450 reductase in Spodoptera frugiperda Sf9 cells using Baculogold baculoviurus (BD Biosciences). Whole cell lysates were used in CYP96T1 enzyme assays.
CYP96T1 assays contained 30 mM KPO4 pH 8.0, 1.25 mM NADPH, 10 μM substrate and 70 μl of virus infected Sf9 cell suspension in 200 μl total volume. The assays were incubated for 2-4 hr at 30° C. 4′-O-metylnorbelladine was used as an initial test compound. Substrate specificity tests were done on 4′-O-methyl-N-methylnorbelladine, norbelladine, N-methylnorbelladine, 3′-O-methylnorbelladine, 3′,4′-O-dimethylnorbelladine, haemanthamine, (S)-coclaurine, (R)-coclaurine and mixed (10aR,4bR)- and (10aS,4bS)-noroxomaritidine. Assays derivatized with sodium borohydride were incubated 2 hr at 30° C. followed by addition of 0.5 volumes 0.5 M sodium borohydride in 0.5 M sodium hydroxide and incubated 30 min at RT. The CYP96T1 assay resolved on a Chiral-CBH column and assays measured with HPLC used fresh CYP96T1 and CPR expressing SF9 cell protein prepared using re-amplified virus. Enzyme assays on all substrates were extracted as previously described and run on a QTRAP 4000 coupled to a IL-20AC XR prominence liquid auto sampler, 20AD XR prominence liquid chromatograph and Phenomenex Luna 5 μm C8(2) 250×4.60 mm column. HPLC gradient and MS settings were as previously described for NpN4OMT. Assay specific MS/MS parameters are presented in
Table 4. Multiple Reaction Monitoring (MRM) parameters for relative quantification of (10aR,4bR)- and (10aS,4bS)-noroxomaritidine, N-demethylnarwedine, narwedine and the two unknown compounds are presented in Table5. For analysis of product chirality, a Chrom Tech, Inc. Chiral-CBH 100×4.0 mm, 5 μM column was used with a 30 min isocratic flow of 2.5% HPLC grade ethanol and 10 mM ammonium acetate with pH adjusted to 7.0 with ammonium hydroxide.

[2] = molecular target: T2, NpN4OMT1 (Narcissus aff. pseudonarcissus MK-2014, UniProt A0A077EWA5); assay type: biochemical; details: for enzymatic activity upon addition of divalent cation: cation dependence test, 5 min assays, 4 μM norbelladine, 37° C.
T2 construct: made in house; host or cells: E. coli BL21(DE3) Codon Plus RIL
Description: Enzyme assays for initial testing of NpN4OMT1 contained 10 μg of pure protein with 200 μM AdoMet, 100 μM norbelladine and 30 mM potassium phosphate buffer pH 8.0 in 100 μl. The assays were incubated for 2 hr at 30° C. The vector control was an E. coli extract purified with TALON in the same way as the methyltransferase protein. For the vector control assay, an equal volume of the pure vector control extract was substituted for the NpN40MT1 protein in the enzyme assay. These assays were quenched by adjusting the pH to 9.5 with two volumes of sodium bicarbonate and extracted with two volumes ethyl acetate two times. After drying, the extracts were re-suspended in the initial mobile phase of the HPLC program. The HPLC separation of the assays was performed using a phenomenex Luna C8(2) 5 m 250×4.6 mm column with solvent A (0.1% formic acid in H2O) and solvent B (acetonitrile). The program started with 10% solvent B and a flow rate of 0.8 ml/min, a linear gradient began at 2 min to 30% at 15 min, 90% at 15.1 min, 90% at 20 min, 10% at 21 min and 10% at 28 min. Injection volume was 20 μl using a Waters auto-sampler. Waters UV detector was set to 277 nm.
After optimization of the NpN4OMT assay, the buffer was changed to […] glycine at pH 8.8, with 5 mM of MgCl2 added and the temperature was increased to 37° C. in 100 μl total reaction volume. When performing kinetic assays, the E. coli enzyme Pfs was added to break down SAH and prevent product inhibition. Papaverine was used as an internal standard.
With the same solvent system as for screening enzyme assays, the HPLC program started with 20% B and a flow rate of 0.8 ml/min, a linear gradient began at 2 min to 25.4% B at 7 min, 90% at 7.2 min, 90% at 9 min, 20% at 9.1 min and 20% at 14 min. A 4000 QTRAP mass spectrometer coupled to the same LC column and time program as used in HPLC was used to collect all compound mass and fragmentation data.
For NpN4OMT norbelladine kinetics an MRM program in positive ion mode was used to monitor the following fragments 260.00 [M+H]^+/138.00 [M−C8H9O]^+• m/z, 260.00 [M+H]^+/121.00 [M−C7H8NO2]^+• m/z, 274.00 [M+H]^+/137.00 [M+H—C8H9O2]^+ m/z, 274.00 [M+H]^+/122.00 [M+H—C8H10NO2]^+ m/z. The fragments with 260.00 [M+H]^+ m/z and 274.00 [M+H]^+ m/z molecular ions were replaced when looking at N-methylnorbelladine for 274.00 [M+H]^+/152.10 [M−C8H9O]^+• m/z, 274.00 [M+H]^+/121.00 [M−C9H12NO2]^+• m/z, 288.00 [M+H]^+/150.10 [M−C8H9O2]^+• m/z and 288.20 [M+H]^+/137.00 [M−C9H12NO]^+• m/z. Papaverine internal standard was monitored with the following fragments 340.40[M+H]^+/324.20 [M−CH3]^+• m/z and 340.40 [M+H]^+/202.10 [M−C8H9O2]^+• m/z. When conducting dopamine kinetics, galanthamine was used as the internal standard and samples were not ethyl acetate extracted prior to LC/MS/MS analysis. To remove protein, two volumes of acetonitrile were added followed by 1 hr at −20° C. and 10 min centrifugation at 16,100×g, 4° C. The supernatant was dried under vacuum and re-suspended in the starting mobile phase before analysis. The HPLC time program was changed to start at 5% solvent B with solution going to waste until 3.9 min, at 5 min start linear gradient to 25% B at […], 90% B at 9.5 min, 90% B at 11 min, 5% B at 11.1 min and 5% B at 16 min. Ions monitored in the MRM were 168.00 [M+H]^+/151.00 [M+H-OH]^+ m/z and 168.00 [M+H]^+/119.00 [M−OH—OCH3]^+• m/z. AdoMet steady state kinetic parameters were determined with norbelladine as the saturated substrate. Product was quantitated using HPLC with the 28 min program used for screening enzyme assays. Product for assays on the additional NpN4OMT variants was detected with this same 28 min program on HPLC.
When conducting kinetic experiments the K, was at least five fold higher than the minimum concentration of substrate and fivefold lower than the maximum concentration of substrate tested.

T2 sequence (A0A077EWA5 whole entry): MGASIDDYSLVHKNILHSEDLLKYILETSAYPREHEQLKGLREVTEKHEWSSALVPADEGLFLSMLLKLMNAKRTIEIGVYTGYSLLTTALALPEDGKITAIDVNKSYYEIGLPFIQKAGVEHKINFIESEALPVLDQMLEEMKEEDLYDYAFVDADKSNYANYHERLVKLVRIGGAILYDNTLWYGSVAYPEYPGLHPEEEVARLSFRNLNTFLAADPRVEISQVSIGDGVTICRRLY

COc1cc2c(cc1O)[C@@H](Cc1ccc(O)cc1)NCC2 [(R)-Coclaurine]
product formation as CYP96T1 substrate [1]: yield products with a mass −2 m/z

Oc1ccc(CCNCc2ccc(O)c(O)c2)cc1 [norbelladine]
product formation as CYP96T1 substrate [1]: Product formation is not observed

NCCc1ccc(O)c(O)c1 [dopamine]
product formation / activity as NpN4OMT substrate [2]: served as a substrate, but with less efficiency
kcat ([2]; substrate of NpN4OMT1, ± = Standard error, ND = Not detected): 0.06 ± 0.0025 s⁻¹
Km ([2]; substrate of NpN4OMT1, ± = Standard error, ND = Not detected, AdoMet determined with norbelladine as the saturated substrate): 7.3 ± 2.7 µM

COc1cc(C=O)ccc1O [vanillin]
product formation / activity as NpN4OMT substrate ([2]; text statement): Products were not detected

CN(CCc1ccc(O)cc1)Cc1ccc(O)c(O)c1 [N-methylnorbelladine]
product formation as CYP96T1 substrate [1]: Product formation is not observed

[Mg+2] [magnesium]
enzymatic activity upon addition of divalent cation [2]: increased fourfold more

COc1cc2c(cc1O)[C@H](Cc1ccc(O)cc1)NCC2 [(S)-Coclaurine]
product formation as CYP96T1 substrate [1]: yield products with a mass −2 m/z

COc1cc(CNCCc2ccc(O)cc2)ccc1O [3′-O-Methylnorbelladine]
product formation as CYP96T1 substrate [1]: products were not detected

COc1ccc(CNCCc2ccc(O)cc2)cc1O [4′-O-Methylnorbelladine]
product formation as CYP96T1 substrate [1]: C—C phenol coupled
kcat ([1]; substrate of CYP96T1): 0.25 ± 0.0338 s⁻¹
kcat ([1]; substrate of CYP96T1, production of noroxomaritidine): 15.0 ± 2.03 L/min
Km ([1]; substrate of CYP96T1, production of (10aR,4bR)- and (10aS,4bS)-noroxomaritidine, Michaelis-Menten with substrate inhibition): 1.13 ± 0.5 µM

O=C(O)/C=C/c1ccc(O)c(O)c1 [caffeic acid]
product formation / activity as NpN4OMT substrate [2]: Products were not detected

COc1ccc(CN(C)CCc2ccc(O)cc2)cc1O [4′-O-Methyl-N-methylnorbelladine]
product formation as CYP96T1 substrate [1]: One product is enzymatically produced

O=Cc1ccc(O)c(O)c1 [3,4-dihydroxybenzaldehyde]
product formation / activity as NpN4OMT substrate ([2]; text statement): Products were not detected; also recorded: lack of enzymatic activity

[Co+2] [cobalt]
enzymatic activity upon addition of divalent cation [2]: enzymatic activity improved

COc1ccc(CNCCc2ccc(O)cc2)cc1OC [3′,4′-O-Dimethylnorbelladine]
product formation as CYP96T1 substrate [1]: products were not detected

NCCc1ccc(O)cc1 [tyramine]
product formation / activity as NpN4OMT substrate ([2]; text statement): Products were not detected
product formation / activity as NpN4OMT substrate ([2]; text statement, listed as Tyramine): not methylated
